# Literature values, collected in patent publication US20240238224A1, “COMPOSITION FOR LOCAL ANAESTHESIA AND USES THEREOF” (priority 2023, published 2024).
# Test system: test teeth
SMILES,"effectiveness compared with tetracaine (reported in U.S. Pat. No. 8,580,282 B2, cols. 7, 13, 14)","effectiveness for inducing pulpal anesthesia, 4% versus 3% tetracaine (non-injected formulation with vasoconstrictor, reported in U.S. Pat. No. 8,580,282 B2)"
"CCCCN1CCCCC1C(=O)Nc1c(C)cccc1C (centres unmarked) [bupivacaine, 1-butyl-N-(2,6-dimethylphenyl)piperidine-2-carboxamide]",not as effective as tetracaine,
"CCCCNc1ccc(C(=O)OCCN(C)C)cc1 [tetracaine, 2-(dimethylamino)ethyl 4-(butylamino)benzoate]",,4% tetracaine is less effective than 3%
